Measurements: the OligoGym collection
“And” between values parts separate entries of the source, which are not always exact repeats. Equal values may be shown once. HELM strings list units from the 5' end as sugar, base in round brackets, then linkage (d deoxyribose, r ribose, m 2'-O-methyl, p phosphodiester). Strings are as the collection lists them; they lack the last nucleoside at the 3' end of the tested compound. [moe] = 2'-O-(2-methoxyethyl) (MOE); [sp] = phosphorothioate linkage; [m5C] = 5-methylcytosine

Target: SMN2
Experiment: mouse, dose not given
Conditions: ASO

Substance	3 h FOB score
RNA1{[moe](A)[sp].[moe](T)p.[moe](T)[sp].[moe]([m5C])[sp].[moe](A)[sp].[moe]([m5C])[sp].[moe](T)[sp].[moe](T)[sp].[moe](T)[sp].[moe]([m5C])[sp].[moe](A)[sp].[moe](T)[sp].[moe](A)[sp].[moe](A)[sp].[moe](T)[sp].[moe](G)[sp].[moe]([m5C])p.[moe](T)[sp].[moe](G)}$$$$ (last 3' nucleoside missing)	2 score 0-7
RNA1{[moe]([m5C])[sp].[moe](A)[sp].[moe]([m5C])[sp].[moe](T)[sp].[moe](T)[sp].[moe](T)[sp].[moe]([m5C])[sp].[moe](A)[sp].[moe](T)[sp].[moe](A)[sp].[moe](A)[sp].[moe](T)p.[moe](G)p.[moe]([m5C])[sp].[moe](T)[sp].[moe](G)[sp].[moe](G)}$$$$ (last 3' nucleoside missing)	0 score 0-7
RNA1{[moe]([m5C])[sp].[moe](T)[sp].[moe](T)p.[moe](T)p.[moe]([m5C])p.[moe](A)p.[moe](T)[sp].[moe](A)[sp].[moe](A)[sp].[moe](T)[sp].[moe](G)[sp].[moe]([m5C])[sp].[moe](T)[sp].[moe](G)[sp].[moe](G)}$$$$ (last 3' nucleoside missing)	0 score 0-7
RNA1{[moe](T)[sp].[moe]([m5C])[sp].[moe](A)[sp].[moe]([m5C])[sp].[moe](T)[sp].[moe](T)[sp].[moe](T)[sp].[moe]([m5C])[sp].[moe](A)[sp].[moe](T)[sp].[moe](A)[sp].[moe](A)[sp].[moe](T)[sp].[moe](G)[sp].[moe]([m5C])[sp].[moe](T)[sp].[moe](G)[sp].[moe](G)p.[moe](T)}$$$$ (last 3' nucleoside missing)	4 score 0-7
RNA1{[moe](A)[sp].[moe]([m5C])[sp].[moe](T)[sp].[moe](T)[sp].[moe](T)p.[moe]([m5C])p.[moe](A)p.[moe](T)p.[moe](A)[sp].[moe](A)[sp].[moe](T)[sp].[moe](G)[sp].[moe]([m5C])[sp].[moe](T)[sp].[moe](G)[sp].[moe](G)}$$$$ (last 3' nucleoside missing)	0 score 0-7
RNA1{[moe](T)[sp].[moe]([m5C])[sp].[moe](A)[sp].[moe]([m5C])[sp].[moe](T)[sp].[moe](T)[sp].[moe](T)[sp].[moe]([m5C])[sp].[moe](A)[sp].[moe](T)[sp].[moe](A)[sp].[moe](A)[sp].[moe](T)[sp].[moe](G)[sp].[moe]([m5C])p.[moe](T)[sp].[moe](G)[sp].[moe](G)}$$$$ (last 3' nucleoside missing)	2.25 score 0-7 (2×) and 2.5 score 0-7 and 2 score 0-7
RNA1{[moe]([m5C])[sp].[moe](A)p.[moe]([m5C])[sp].[moe](T)[sp].[moe](T)[sp].[moe](T)[sp].[moe]([m5C])[sp].[moe](A)p.[moe](T)[sp].[moe](A)[sp].[moe](A)[sp].[moe](T)[sp].[moe](G)[sp].[moe]([m5C])[sp].[moe](T)[sp].[moe](G)[sp].[moe](G)}$$$$ (last 3' nucleoside missing)	1 score 0-7
RNA1{[moe](A)[sp].[moe]([m5C])[sp].[moe](T)[sp].[moe](T)[sp].[moe](T)[sp].[moe]([m5C])p.[moe](A)p.[moe](T)p.[moe](A)p.[moe](A)p.[moe](T)p.[moe](G)p.[moe]([m5C])[sp].[moe](T)[sp].[moe](G)[sp].[moe](G)}$$$$ (last 3' nucleoside missing)	0 score 0-7
RNA1{[moe]([m5C])[sp].[moe](A)[sp].[moe]([m5C])[sp].[moe](T)[sp].[moe](T)[sp].[moe](T)[sp].[moe]([m5C])[sp].[moe](A)[sp].[moe](T)[sp].[moe](A)[sp].[moe](A)[sp].[moe](T)p.[moe](G)p.[moe]([m5C])p.[moe](T)p.[moe](G)[sp].[moe](G)}$$$$ (last 3' nucleoside missing)	0 score 0-7
RNA1{[moe]([m5C])[sp].[moe](T)p.[moe](T)p.[moe](T)p.[moe]([m5C])p.[moe](A)[sp].[moe](T)[sp].[moe](A)[sp].[moe](A)[sp].[moe](T)[sp].[moe](G)p.[moe]([m5C])p.[moe](T)p.[moe](G)[sp].[moe](G)}$$$$ (last 3' nucleoside missing)	0 score 0-7
RNA1{[moe]([m5C])[sp].[moe](A)[sp].[moe]([m5C])[sp].[moe](T)[sp].[moe](T)[sp].[moe](T)[sp].[moe]([m5C])[sp].[moe](A)[sp].[moe](T)[sp].[moe](A)[sp].[moe](A)p.[moe](T)[sp].[moe](G)[sp].[moe]([m5C])[sp].[moe](T)[sp].[moe](G)[sp].[moe](G)}$$$$ (last 3' nucleoside missing)	0.25 score 0-7
RNA1{[moe]([m5C])[sp].[moe](T)[sp].[moe](T)[sp].[moe](T)[sp].[moe]([m5C])[sp].[moe](A)[sp].[moe](T)[sp].[moe](A)[sp].[moe](A)[sp].[moe](T)p.[moe](G)p.[moe]([m5C])p.[moe](T)p.[moe](G)[sp].[moe](G)}$$$$ (last 3' nucleoside missing)	0 score 0-7
